The subject of data set [1] is S. typhimurium and E. coli tester strains. The data set is described as follows: Benchmark dose (BMD) modelling of positive Ames test dose-response data. The format is cell-based, Salmonella typhimurium and Escherichia coli. To be noted: BMR 100%; all positive combinations of vehicle, method, strain and S9. In general terms: The Ames test uses bacterial strains that need an amino acid and regain growth without it when mutated back.
Protocol: Benchmark dose analyses were carried out using the freely available PROAST R-package (version 70.3) (http://www.proast.nl). Ames test dose–response data (with cytotoxic test concentrations removed) were analysed using the exponential model family recommended by EFSA for the assessment of continuous (geno)toxicity dose–response data [37]. Where combined analyses were used, dose–response relationships were analysed using the assay conditions discriminating the subgroups (i.e. sub-study) as a covariate. To prevent overfitting, more complex models with additional parameters were only accepted if the goodness-of-fit exceeded the critical value at P < .05. PROAST outputs designate potency (i.e. the benchmark dose (BMD)) and its two-sided, 90% confidence interval (i.e. the BMDL and BMDU) as the ‘Critical Effect Dose’ (i.e. yielding a CED, CEDL, and CEDU), respectively, for each level of the covariate. Using the combined-covariate BMD approach [38], the model parameters that required estimation for each subgroup and those that could be considered constant across subgroups were established for the combined dataset. In general, the combined analyses presented here assumed that parameters for the maximum response (parameter c), log-steepness (parameter d) were equal for all subgroups, while the background response (parameter a), potency (parameter b), and within-group variation (var) were tested for subgroup dependence [39]. Model fits were used to visually evaluate the validity of the assumption of conserved shape. […]
To further understand the impact of different test parameters on test outcomes, BMD-derived potency/sensitivity rankings [38] were generated from the dose–response relationships for NDMA and NDEA. […] Instead, the purpose is to quantitatively provide a means to compare the potency/sensitivity of different assay conditions, that is, bacterial strain, S9 source, vehicle, and plate/pre-incubation methods, to inform on optimal study designs for robust/sensitive mutagenicity calls. […]

The test system of the next data set is S. typhimurium TA98. Briefly: Ames test, pre-incubation method, TA98. To be noted: vehicle acetonitrile, up to 5000 µg/plate.
Data set [2] concerns E. coli WP2uvrA (pKM101). Particulars: for increase in mutant frequency at the limit concentration: 5000 µg/plate.
In a further data set the test system is S. typhimurium TA1537. The data set is described as follows: Ames test, pre-incubation method, TA1537. Particulars: S9 hamster, vehicle acetonitrile, up to 5000 µg/plate.
Another data set has as its system Salmonella typhimurium. To be noted: cited from earlier work.
For data set [3], the system named is E. coli WP2uvrA (pKM101). Briefly: Ames test, pre-incubation method, WP2uvrA (pKM101). Particulars: for increase in mutant frequency compared with vehicle controls: 5000 µg/plate.
Data set [4] deals with CYP2E1 (Rattus norvegicus, UniProt P05182). Briefly: Effect of vehicle on CYP2E1 activity of rat liver S9 (chlorzoxazone 6-hydroxylation). To be noted: induced rat liver S9; vehicle 7.7% (v/v); chlorzoxazone 10 µM; 30 min.
The target of data set [5] is CYP2E1 (Mesocricetus auratus, UniProt P51581). Briefly: Effect of vehicle on CYP2E1 activity of hamster liver S9 (chlorzoxazone 6-hydroxylation). Particulars: vehicle 7.7% (v/v), chlorzoxazone 10 µM, 30 min; for effect on conversion of chlorzoxazone to 6-hydroxychlorzoxazone compared with water: induced hamster liver S9; for reduction of 6-hydroxychlorzoxazone formation compared with water: Aroclor-induced hamster liver S9.

For the next data set, the system named is S. typhimurium TA1535. Briefly: Ames test, pre-incubation method, TA1535. To be noted: hamster liver S9-mix, vehicle water, 5000 µg/plate.
A further data set relates to S. typhimurium TA100. Briefly: Ames test, pre-incubation method, TA100.
Another data set deals with rat. Also noted: method as in PMID 4230610. Particulars: historical data; cited from earlier work.
The mark [6] stands for this setting: plate incorporation, rat liver S9-mix, vehicle methanol, E. coli WP2uvrA (pKM101).
[7] abbreviates: plate incorporation, rat liver S9-mix, vehicle water, E. coli WP2uvrA (pKM101).
[8] abbreviates: rat liver S9-mix, vehicle methanol.

Molecules are shown by their SMILES. Read-outs that look alike come from different tables or passages of the source.

These results are taken from paper PMC10928841, “Ames test study designs for nitrosamine mutagenicity testing: qualitative and quantitative analysis of key assay parameters” (Mutagenesis, 2023).

Chain of CYP2E1 (Rattus norvegicus, UniProt P05182) (P05182 whole entry): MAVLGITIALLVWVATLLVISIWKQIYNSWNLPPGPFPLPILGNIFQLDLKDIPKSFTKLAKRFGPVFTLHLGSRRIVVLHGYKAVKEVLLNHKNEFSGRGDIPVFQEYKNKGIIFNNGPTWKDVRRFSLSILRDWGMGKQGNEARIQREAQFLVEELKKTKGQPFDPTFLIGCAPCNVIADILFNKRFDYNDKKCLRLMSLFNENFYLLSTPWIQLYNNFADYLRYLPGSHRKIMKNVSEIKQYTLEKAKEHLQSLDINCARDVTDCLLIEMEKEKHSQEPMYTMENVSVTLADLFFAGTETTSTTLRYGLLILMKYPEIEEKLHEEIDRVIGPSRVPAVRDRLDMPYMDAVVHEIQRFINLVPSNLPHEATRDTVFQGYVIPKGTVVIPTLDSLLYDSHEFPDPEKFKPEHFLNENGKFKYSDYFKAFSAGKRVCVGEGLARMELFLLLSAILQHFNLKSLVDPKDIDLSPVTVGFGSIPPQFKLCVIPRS
Chain of CYP2E1 (Mesocricetus auratus, UniProt P51581) (P51581 whole entry): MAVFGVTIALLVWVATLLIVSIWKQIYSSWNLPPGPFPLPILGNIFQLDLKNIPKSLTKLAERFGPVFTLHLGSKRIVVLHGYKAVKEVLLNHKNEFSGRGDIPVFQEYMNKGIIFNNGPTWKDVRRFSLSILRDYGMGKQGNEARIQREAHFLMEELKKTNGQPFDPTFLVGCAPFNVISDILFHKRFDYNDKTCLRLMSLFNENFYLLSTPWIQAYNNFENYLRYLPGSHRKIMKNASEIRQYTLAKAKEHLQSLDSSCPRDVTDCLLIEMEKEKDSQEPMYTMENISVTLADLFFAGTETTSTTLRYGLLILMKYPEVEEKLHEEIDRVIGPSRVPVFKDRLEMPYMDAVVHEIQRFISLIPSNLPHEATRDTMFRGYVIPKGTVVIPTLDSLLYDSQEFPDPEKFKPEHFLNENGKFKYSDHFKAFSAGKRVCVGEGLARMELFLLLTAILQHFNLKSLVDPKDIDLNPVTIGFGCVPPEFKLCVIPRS

Turning to `CCN(CC)N=O` [NDEA, N-nitrosodiethylamine], the “range in sensitivity/potency (BMD100 confidence intervals) across positive datasets” value in data set [1] is ~ 100 fold. In addition, the “Ames test strain TA98” value in the data set with S. typhimurium TA98 (S9 hamster) and in the data set with S. typhimurium TA98 (S9 rat) was “Toxic” throughout. The “Ames test strain WP2*” value in the data set on E. coli WP2uvrA (pKM101) [2] is listed as “+”. For the same compound, the “concentration giving concentration-dependent increases in mutant frequency” value in the data set with E. coli WP2uvrA (pKM101) [2] (plate incorporation, rat liver S9-mix, all three vehicles water, methanol or DMSO, E. coli WP2uvrA (pKM101)) is not below 1500 µg/plate. In addition, the “Ames test strain TA1537” value in the data set with S. typhimurium TA1537 is “Toxic”. Moreover, in the data set on Salmonella typhimurium (not tested in the current study), the “mutagenicity in the absence of metabolic activation” value is given as “non-mutagenic”.
For the compound `CN(C)N=O` [NDMA, N-Nitrosodimethylamine], the “range in sensitivity/potency (BMD100 confidence intervals) across positive datasets” value in data set [1] is reported as ~ 1000 fold. Besides, the “increase in mutant frequency compared with vehicle controls” value is 2 fold in the data set on E. coli WP2uvrA (pKM101) [3] (rat liver S9, vehicle methanol) and 2.6 fold in the data set on E. coli WP2uvrA (pKM101) [3] (rat liver S9, vehicle water). The “concentration giving an increase in revertant colonies compared with vehicle controls” value in the data set on E. coli WP2uvrA (pKM101) [2] (setting [6]) is given as 5000 µg/plate; with E. coli WP2uvrA (pKM101) [2] (setting [7]), not below 1500 µg/plate.
Consider `C[S+](C)[O-]` [DMSO, dimethylsulfoxide], for which the “effect on conversion of chlorzoxazone to 6-hydroxychlorzoxazone compared with water” value (from here on “effect on conversion … compared with water”) on CYP2E1 [4] and at CYP2E1 [5] was “inhibit” throughout.
Consider `CC#N` [acetonitrile], for which the “effect on conversion … compared with water” value on CYP2E1 [4] and at CYP2E1 [5] was “inhibit” throughout.
For `CCN(C)N=O` [NMEA, N-nitrosomethylethylamine], the “fold-increase at the limit concentration” value worked out at 275 fold in the data set on S. typhimurium TA1535 and 32 fold with S. typhimurium TA100 (hamster liver S9-mix, vehicle water, 5000 µg/plate). Also, in data set [1], the “range in sensitivity/potency (BMD100 confidence intervals) across positive datasets” value is 1000 fold. In the data set with S. typhimurium TA100 (setting [8]), the “concentration giving a concentration-related increase in revertant colonies” value is listed as not below 1500 µg/plate. Besides, in the data set with E. coli WP2uvrA (pKM101) [3] (setting [8]), the “concentration giving a positive response” value is 5000 µg/plate. In addition, the results for the “concentration giving an increase in revertant colonies compared with vehicle controls” value in the data set on E. coli WP2uvrA (pKM101) [2] (setting [6]) and in the data set with E. coli WP2uvrA (pKM101) [2] (setting [7]) were not below 1500 µg/plate and not below 2500 µg/plate, respectively. Moreover, the “increase in mutant frequency at the limit concentration” value in the data set with E. coli WP2uvrA (pKM101) [2] (setting [6]) turned out to be 4.3 fold; with E. coli WP2uvrA (pKM101) [2] (setting [7]), 2.7 fold. Moreover, the “Ames test (legacy result)” value in the data set on Salmonella typhimurium (historical data) is reported as “negative”. Moreover, the rodent cancer bioassay entry in the data set with rat is on record as “positive”.
With `CO` [Methanol, methanol], at CYP2E1 [4], the “effect on conversion … compared with water” value was “negligible effect”. Also, the “reduction of 6-hydroxychlorzoxazone formation compared with water” value on CYP2E1 [5] was ~ 50%.
Consider `CC(C)=O` [acetone], for which, on CYP2E1 [4], the “effect on conversion … compared with water” value is “negligible effect”. Moreover, the “reduction of 6-hydroxychlorzoxazone formation compared with water” value on CYP2E1 [5] is listed as ~ 75%.
